# US11471537B2, “Oligomer extended insulin-Fc conjugates” (Novo Nordisk A/S, priority 2017, dated 2022)
# Tests used:
# [1] = PK studies: intravenous and subcutaneous administration to SD rats, insulin-Fc concentrations by immuno-assay; type: in vivo; settings: for PK rat sc [T½ (h)] Mean Value: subcutaneous
# Experimental: Insulin-Fc conjugates were tested in vivo by intravenous and subcutaneous administration to SD rats. Blood samples were collected and the insulin-Fc concentrations were measured by immuno-assay.
# [2] = system: isolated rat adipocytes; test: Insulin-stimulated lipogenesis; type: cell-based; settings: 1% HSA; relative to the activity of human insulin (100%)
# Experimental: Insulin-stimulated lipogenesis was measured in isolated rat adipocytes in presence of 1% HSA as described in Moody A J, Stan M A, Stan M, Gliemann J. A Simple Free Fat Cell Bioassay for Insulin. Hormone And Metabolic Research. 1974; 6(1):12-6, see results in Table 6.
# [3] = target: insulin receptor A (Homo sapiens, UniProt P06213); test: Insulin receptor affinity; type: binding; settings: relative to affinity of human insulin for insulin receptor A (100%)
# [4] = system: Sprague-Dawley rats; test: PD studies: blood glucose after subcutaneous dosing; type: in vivo; settings: sc
# Experimental: The pharmacodynamic effect of the Insulin Fc conjugates of the examples were investigated in normal male Sprague-Dawley rats weighing approx. 350 g at study start.
# Animals had free access to food and water during the experiment period. They were dosed subcutaneously in the neck region with a dose of 30 nmol/kg (unless otherwise stated in the figures below). Blood samples for blood glucose and plasma insulin analysis were collected from the tongue veins up to 10 days post dosing. Blood glucose was measured using Biosen S Line (EKF).
# [5] = dose 30 nmol/kg, time 0.041667 days
# [6] = dose 30 nmol/kg, time 0.125 days
# [7] = dose 30 nmol/kg, time 0.208333 days
# [8] = dose 30 nmol/kg, time 0.291667 days
# Sequence of insulin receptor A (P06213 28-1370 isoform P06213-2 limits assumed): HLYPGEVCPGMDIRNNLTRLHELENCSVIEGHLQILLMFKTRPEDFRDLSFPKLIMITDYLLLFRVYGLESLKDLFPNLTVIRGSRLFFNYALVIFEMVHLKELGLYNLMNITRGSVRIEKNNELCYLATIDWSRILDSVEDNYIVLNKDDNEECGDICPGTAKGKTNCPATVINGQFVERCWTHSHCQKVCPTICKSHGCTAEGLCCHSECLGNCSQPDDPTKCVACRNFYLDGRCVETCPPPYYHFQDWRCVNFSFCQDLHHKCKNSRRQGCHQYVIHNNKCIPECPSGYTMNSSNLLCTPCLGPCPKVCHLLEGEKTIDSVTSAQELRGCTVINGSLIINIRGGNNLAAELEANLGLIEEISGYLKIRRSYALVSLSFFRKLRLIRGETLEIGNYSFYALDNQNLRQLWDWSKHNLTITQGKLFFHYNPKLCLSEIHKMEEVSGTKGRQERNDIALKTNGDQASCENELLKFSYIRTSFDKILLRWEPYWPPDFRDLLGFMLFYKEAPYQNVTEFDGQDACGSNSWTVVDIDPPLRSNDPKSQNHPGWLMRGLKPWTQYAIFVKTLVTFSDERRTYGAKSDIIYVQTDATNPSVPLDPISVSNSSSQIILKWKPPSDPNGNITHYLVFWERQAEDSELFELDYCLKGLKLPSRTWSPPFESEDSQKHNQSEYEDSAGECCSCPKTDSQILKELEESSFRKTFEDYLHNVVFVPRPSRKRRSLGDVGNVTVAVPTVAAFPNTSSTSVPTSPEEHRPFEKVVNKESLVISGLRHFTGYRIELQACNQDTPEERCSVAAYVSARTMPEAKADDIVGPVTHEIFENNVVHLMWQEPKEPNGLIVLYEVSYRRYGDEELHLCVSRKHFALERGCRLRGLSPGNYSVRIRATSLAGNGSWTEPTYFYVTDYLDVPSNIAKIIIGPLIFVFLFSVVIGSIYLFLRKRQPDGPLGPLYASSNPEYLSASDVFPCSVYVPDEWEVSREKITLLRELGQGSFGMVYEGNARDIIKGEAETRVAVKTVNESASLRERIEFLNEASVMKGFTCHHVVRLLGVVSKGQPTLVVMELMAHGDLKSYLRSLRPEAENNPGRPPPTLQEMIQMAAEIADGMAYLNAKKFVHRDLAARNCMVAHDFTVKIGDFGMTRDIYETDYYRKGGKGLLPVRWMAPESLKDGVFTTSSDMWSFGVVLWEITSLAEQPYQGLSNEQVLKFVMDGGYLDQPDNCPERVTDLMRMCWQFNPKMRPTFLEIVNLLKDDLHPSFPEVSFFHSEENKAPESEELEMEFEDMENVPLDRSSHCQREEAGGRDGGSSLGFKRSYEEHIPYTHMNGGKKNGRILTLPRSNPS
# Sequence of insulin receptor A (P06213 763-1382 partner limits assumed): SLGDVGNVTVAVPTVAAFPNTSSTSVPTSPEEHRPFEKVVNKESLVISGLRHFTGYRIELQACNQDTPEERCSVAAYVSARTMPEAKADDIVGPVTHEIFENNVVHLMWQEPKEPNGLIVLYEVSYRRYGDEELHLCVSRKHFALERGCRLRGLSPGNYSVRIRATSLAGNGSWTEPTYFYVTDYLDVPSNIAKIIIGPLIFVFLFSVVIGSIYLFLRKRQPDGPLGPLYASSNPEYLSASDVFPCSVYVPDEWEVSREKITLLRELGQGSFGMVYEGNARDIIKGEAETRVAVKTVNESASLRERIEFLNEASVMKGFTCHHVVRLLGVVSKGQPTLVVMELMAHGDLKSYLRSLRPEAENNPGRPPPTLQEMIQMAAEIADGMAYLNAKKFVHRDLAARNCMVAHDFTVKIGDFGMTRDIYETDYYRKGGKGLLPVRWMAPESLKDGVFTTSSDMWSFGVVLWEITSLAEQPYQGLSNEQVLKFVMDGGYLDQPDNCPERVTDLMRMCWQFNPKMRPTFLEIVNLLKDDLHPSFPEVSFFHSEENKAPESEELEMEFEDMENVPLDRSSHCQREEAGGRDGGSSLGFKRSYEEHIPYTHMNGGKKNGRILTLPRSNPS
Substance,PK rat iv [T½ (h)] Mean Value [1] [h],PK rat sc [T½ (h)] Mean Value [1] [h],Lipogenesis in rat adipocytes [Potency (%)] Mean Value [2] [%],Insulin receptor affinity [IC50 relative to HI (%)] Mean Value [3] [%],"Average blood glucose ([4]; dose 30 nmol/kg, time 0 days) [mM]","Average blood glucose [4, 5] [mM]","Average blood glucose [4, 6] [mM]","Average blood glucose [4, 8] [mM]","Average blood glucose ([4]; dose 30 nmol/kg, time 1 day) [mM]","Average blood glucose ([4]; dose 30 nmol/kg, time 2 days) [mM]","Average blood glucose ([4]; dose 30 nmol/kg, time 3 days) [mM]","Average blood glucose ([4]; dose 30 nmol/kg, time 4 days) [mM]","Average blood glucose ([4]; dose 30 nmol/kg, time 5 days) [mM]","Average blood glucose ([4]; dose 30 nmol/kg, time 6 days) [mM]","Average blood glucose ([4]; dose 30 nmol/kg, time 7 days) [mM]","Average blood glucose ([4]; dose 30 nmol/kg, time 8 days) [mM]",also measured
"A14E, B(−78K^), B(−77P), B(−1)(GQAPGQAPGQEP)6-GQAP, B3Q, B25H, B29R, desB30 human insulin/(227A, 234A, 235K hIgG4-Fc(228-447))4-[bis[2-[(2-acetyl)amino]ethyl]amino]-4-oxo-butanoyl Conjugate [Example 5.3]",35.6,33.1,0.55,2.57,–,–,–,–,–,–,–,–,–,–,–,–,–
"A14E, B(−78K^), B(−77P), B(−1)(GQEP)19, B25H, B29R, desB30 human insulin/(227A, 234A, 235K, 297E, 315Q, 384Q, des447 hIgG4-Fc(228-447))4-[bis[2-[(2-acetyl)amino]ethyl]amino]-4-oxo-butanoyl Conjugate [Example 5.11]",30.7,33.1,0.39,1.72,–,–,–,–,–,–,–,–,–,–,–,–,–
"A14E, A21Q, A22(G)18, A40K^, B25H, B29R, desB30 human insulin/(227A, 234A, 235K hIgG4-Fc(228-447))4-[bis[2-[(2-acetyl)amino]ethyl]amino]-4-oxo-butanoyl Conjugate [Example 5.21]",–,–,0.95,2.10,–,–,–,–,–,–,–,–,–,–,–,–,"Average blood glucose ([4]; dose 300 nmol/kg, time 0 days): 5.254 mM; Average blood glucose ([4]; dose 300 nmol/kg, time 0.006944 days): 5.972 mM; Average blood glucose ([4]; dose 300 nmol/kg, time 0.041667 days): 4.224 mM; Average blood glucose ([4]; dose 300 nmol/kg, time 0.125 days): 3.238 mM; Average blood glucose ([4]; dose 300 nmol/kg, time 0.208333 days): 2.842 mM; Average blood glucose ([4]; dose 300 nmol/kg, time 0.291667 days): 3.212 mM; Average blood glucose ([4]; dose 300 nmol/kg, time 0.3336 days): 3.494 mM; Average blood glucose ([4]; dose 300 nmol/kg, time 1 day): 2.58 mM; Average blood glucose ([4]; dose 300 nmol/kg, time 2 days): 2.118 mM; Average blood glucose ([4]; dose 300 nmol/kg, time 3 days): 2.074 mM; Average blood glucose ([4]; dose 300 nmol/kg, time 4 days): 2.37 mM; Average blood glucose ([4]; dose 300 nmol/kg, time 5 days): 2.478 mM; Average blood glucose ([4]; dose 300 nmol/kg, time 6 days): 4.534 mM; Average blood glucose ([4]; dose 300 nmol/kg, time 7 days): 5.588 mM; Average blood glucose ([4]; dose 300 nmol/kg, time 8 days): 6.552 mM; Average blood glucose ([4]; dose 300 nmol/kg, time 9 days): 5.644 mM; Average blood glucose ([4]; dose 300 nmol/kg, time 10 days): 5.788 mM"
"A14E, A21G, A22(GQEP)12, A70K^, A71P, B25H, B29R, desB30 human insulin/(227A, 234A, 235K hIgG4-Fc(228-447))4-[bis[2-[(2-acetyl)amino]ethyl]amino]-4-oxo-butanoyl Conjugate [Example 5.8]",–,–,5.31,10.58,5.538,5.44,4.488,3.238,2.978,1.844,2.545,3.325,5.39,6.8425,6.4875,6.1875,"Average blood glucose [4, 7]: 3.55 mM"
"A14E, B(−78K^), B(−77P), B(−1)(GQAP)19, B25H, B29R, desB30 human insulin/(227A, 234A, 235K, 297E, 315Q, 384Q, des447 hIgG4-Fc(228-447))4-[bis[2-[(2-acetyl)amino]ethyl]amino]-4-oxo-butanoyl Conjugate [Example 5.18]",24.9,28.0,0.87,2.78,–,–,–,–,–,–,–,–,–,–,–,–,–
"A14E, A21G, A22(GQAPGQEP)6, A70K^, A71P, B25H, B29R, desB30 human insulin/(227A, 234A, 235K hIgG4-Fc(228-447))4-[bis[2-[(2-acetyl)amino]ethyl]amino]-4-oxo-butanoyl Conjugate [Example 5.9]",–,–,3.02,2.96,5.812,5.448,5.438,4.426,3.044,2.614,2.594,3.734,5.932,6.244,6.312,6.186,"Average blood glucose [4, 7]: 4.902 mM"
"(A1(N(alpha)acetyl), A14E, A21G, A22(GQAP)19, A98K^, A99P, B1(N(alpha)acetyl), B25H, B29R, desB30 human insulin)/(227A, 234A, 235K, 297E, 315Q, 384Q, des447 hIgG4-Fc(228-447))4-[bis[2-[(2-acetyl)amino]ethyl]amino]-4-oxo-butanoyl Conjugate [Example 5.27]",40.7,50.4,–,1.07,5.504,6.308,5.72,5.164,3.036,3.852,4.384,5.272,5.236,5.564,5.824,5.924,"Average blood glucose ([4]; dose 30 nmol/kg, time 9 days): 5.68 mM; Average blood glucose ([4]; dose 30 nmol/kg, time 10 days): 6.12 mM"
"A14E, A21G, A22(GQEP)19, A98K^, A99P, B3Q, B25H, B29R, desB30 human insulin/(227A, 234A, 235K, 297E, 315Q, 384Q, des447 hIgG4-Fc(228-447))4-[bis[2-[(2-acetyl)amino]ethyl]amino]-4-oxo-butanoyl Conjugate [Example 5.2]",–,–,3.57,6.10,6.608,6.196,5.328,4.48,2.7,2.66,3.08,5.156,–,6.232,6.092,5.972,–
"A14E, A21G, A22(GQAPGQAPGQEP)6-GQAP, A98K^, A99P, B3Q, B25H, B29R, desB30 human insulin/(227A, 234A, 235K, 297E, 315Q, 3840, des447 hIgG4-Fc(228-447))4-[bis[2-[(2-acetyl)amino]ethyl]amino]-4-oxo-butanoyl Conjugate [Example 5.13]",–,–,3.07,5.55,6.384,5.976,4.892,4.184,2.428,2.452,3.308,5.676,–,5.908,5.812,5.492,–
"(A14E, A21G, A22(GQEP)19, 98K^, A99P, B25H, B29R, desB30 human insulin)/(226A, 227G, 228P, 234A, 235K, des447 hIgG4-Fc(228-447))3,5-bis[(2-acetyl)amino]benzoyl Conjugate [Example 5.33]",–,–,5.44,3.85,5.496,5.284,4.716,3.744,3.744,2.232,1.844,2.432,3.98,6.132,5.712,5.38,"Average blood glucose ([4]; dose 30 nmol/kg, time 9 days): 5.316 mM; Average blood glucose ([4]; dose 30 nmol/kg, time 10 days): 5.44 mM"
"A14E, B(−78K^), B(−77P), B(−1)(GQEP)19, B25H, B29R, desB30 human insulin/(227A, 234A, 235K hIgG4-Fc(228-447))4-[bis[2-[(2-acetyl)amino]ethyl]amino]-4-oxo-butanoyl Conjugate [Example 5.4]",26.4,32.2,0.36,2.14,–,–,–,–,–,–,–,–,–,–,–,–,–
